Source: US9278981B2, “Compounds and compositions for inhibiting the activity of ABL1, ABL2 and BCR-ABL1” (Novartis AG, priority 2012, dated 2016)

Tests used:
ABL1 (64-515) [1] = target: T1, ABL1 (64-515) (Homo sapiens (Human), UniProt P00519); assay: Caliper ABL1 (64-515) assay (microfluidic mobility shift); assay type: biochemical
ABL1 (64-515) [2] = target: T1, ABL1 (64-515); assay: Radio ABL1 (64-515) assay (radiometric filter-binding); assay type: biochemical

T1 sequence (P00519 64-515): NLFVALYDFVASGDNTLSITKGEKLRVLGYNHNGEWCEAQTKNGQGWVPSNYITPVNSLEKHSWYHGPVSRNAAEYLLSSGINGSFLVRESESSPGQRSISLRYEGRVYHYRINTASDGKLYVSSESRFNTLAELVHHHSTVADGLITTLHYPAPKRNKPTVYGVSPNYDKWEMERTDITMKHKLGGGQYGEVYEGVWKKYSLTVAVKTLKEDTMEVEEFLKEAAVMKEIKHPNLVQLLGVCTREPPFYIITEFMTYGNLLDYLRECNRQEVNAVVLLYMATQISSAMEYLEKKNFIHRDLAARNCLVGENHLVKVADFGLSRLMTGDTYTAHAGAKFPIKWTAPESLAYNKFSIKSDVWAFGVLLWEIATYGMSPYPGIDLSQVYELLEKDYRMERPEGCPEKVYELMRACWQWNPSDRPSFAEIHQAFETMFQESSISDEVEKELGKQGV

Row | IC50 (ABL1 (64-515) [1]) | IC50 (ABL1 (64-515) [2]) | Structure (SMILES)
1 | 1.8 nM | 16 nM | CCN(CCO)c1ncc(C(=O)Nc2ccc(SC(F)(F)F)cc2)cc1-c1cncc(C#N)c1 [Example 197, 5′-Cyano-2-(ethyl(2-hydroxyethyl)amino)-N-(4-((trifluoromethyl)thio)phenyl)-[3,3′-bipyridine]-5-carboxamide]
2 | 1.2 nM | 3 nM | O=C(Nc1ccc(OC(F)(F)F)cc1)c1cnc(N2CC[C@@H](O)C2)c(-c2ccc(F)nc2)c1 [Example 47, (R)-6′-Fluoro-2-(3-hydroxypyrrolidin-1-yl)-N-(4-(trifluoromethoxy)phenyl)-[3,3′-bipyridine]-5-carboxamide]
3 | < 0.13 nM | < 3 nM | O=C(Nc1ccc(SC(F)(F)F)c(F)c1)c1cnc(N2CC[C@@H](O)C2)c(-c2cncnc2)c1 [Example 205, (R)—N-(3-Fluoro-4-((trifluoromethyl)thio)phenyl)-6-(3-hydroxypyrrolidin-1-yl)-5-(pyrimidin-5-yl)nicotinamide]
4 | 0.6 nM | 1 nM | O=C(Nc1ccc(OC(F)(F)Cl)cc1)c1cnc(N2C[C@@H](O)[C@@H](O)C2)c(-c2cncc(F)c2)c1 [Example 264]
5 | 0.4 nM | 1 nM | CN(CCO)c1ncc(C(=O)Nc2ccc(OC(F)(F)Cl)cc2)cc1-c1cncc(F)c1 [Example 180, N-(4-(Chlorodifluoromethoxy)phenyl)-5′-fluoro-2-((2-hydroxyethyl)(methyl)amino)-[3,3′-bipyridine]-5-carboxamide]
6 | < 0.13 nM | < 3 nM | CN(CCO)c1ncc(C(=O)Nc2ccc(OC(F)(F)F)cc2)cc1-c1cncnc1 [Example 151, 6-((2-Hydroxyethyl)(methyl)amino)-5-(pyrimidin-5-yl)-N-(4-(trifluoromethoxy)phenyl)nicotinamide]
7 | 0.4 nM | < 3 nM | O=C(Nc1ccc(OC(F)(F)F)cc1)c1cnc(N2C[C@H](O)[C@@H](O)C2)c(-c2cccnc2)c1 [Example 70, 2-((3S,4S)-3,4-Dihydroxypyrrolidin-1-yl)-N-(4-(trifluoromethoxy)phenyl)-[3,3′-bipyridine]-5-carboxamide]
8 | 0.7 nM | 3 nM | N[C@]1(C(F)(F)F)CCN(c2ncc(C(=O)Nc3ccc(OC(F)(F)Cl)cc3)cc2-c2cncnc2)C1 [Example 289, (R)-6-(3-Amino-3-(trifluoromethyl)pyrrolidin-1-yl)-N-(4-(chlorodifluoromethoxy)phenyl)-5-(pyrimidin-5-yl)nicotinamide]
9 | 0.8 nM | 4.2 nM | O=C(Nc1ccc(OC(F)(F)F)cc1)c1cnc(N2CC[C@@H](O)C2)c(-c2cnccc2F)c1 [Example 48, (R)-4′-Fluoro-2-(3-hydroxypyrrolidin-1-yl)-N-(4-(trifluoromethoxy)phenyl)-[3,3′-bipyridine]-5-carboxamide]
10 | 0.8 nM | < 3 nM | Cc1ccc(-c2cc(C(=O)Nc3ccc(OC(F)(F)F)cc3)cnc2N2CC[C@@H](O)C2)cn1 [Example 41, (R)-2-(3-Hydroxypyrrolidin-1-yl)-6′-methyl-N-(4-(trifluoromethoxy)phenyl)-[3,3′-bipyridine]-5-carboxamide]
11 | < 0.13 nM | 3 nM | Cc1ncncc1-c1cc(C(=O)Nc2ccc(OC(F)(F)Cl)cc2)cnc1N1CC[C@@H](O)C1 [Example 263]
12 | 0.6 nM | < 0.1 nM | O=C(Nc1ccc(OC(F)(F)Cl)cc1)c1cnc(N2Cc3cn[nH]c3C2)c(-c2cncnc2)c1 [Example 254]
13 | 16 nM | 7 nM | Cc1ccc(-c2cc(C(=O)Nc3ccc(OC(F)(F)C(F)F)cc3)cnc2N2CC[C@@H](O)C2)cn1 [Example 213, (R)-2-(3-Hydroxypyrrolidin-1-yl)-6′-methyl-N-(4-(1,1,22-tetrafluoroethoxy)phenyl)-[3,3′-bipyridine]-5-carboxamide]
14 | 0.7 nM | < 0.1 nM | CN(C)[C@H]1CN(c2ncc(C(=O)Nc3ccc(OC(F)(F)Cl)cc3)cc2-c2cncnc2)C[C@@H]1O [Example 251]
15 | 0.9 nM | 3 nM | Cc1ccc(-c2cc(C(=O)Nc3ccc(OC(F)(F)F)cc3)cnc2N2CC[C@@H](CO)C2)cn1 [Example 77, (R)-2-(3-(hydroxymethyl)pyrrolidin-1-yl)-6′-methyl-N-(4-(trifluoromethoxy)phenyl)-[3,3′-bipyridine]-5-carboxamide]
16 | 3.3 nM | 11 nM | O=C(Nc1ccc(SC(F)F)cc1)c1cnc(N2CC[C@@H](O)C2)c(-c2cncnc2)c1 [Example 211, (R)—N-(4-((Difluoromethyl)thio)phenyl)-6-(3-hydroxypyrrolidin-1-yl)-5-(pyrimidin-5-yl)nicotinamide]
17 | 1.2 nM | 3 nM | O=C(Nc1ccc(OC(F)(F)F)c(F)c1)c1cnc(N2CC[C@@H](O)C2)c(-c2cncc(F)c2)c1 [Example 199, (R)-5′-Fluoro-N-(3-fluoro-4-(trifluoromethoxy)phenyl)-2-(3-hydroxypyrrolidin-1-yl)-[3,3′-bipyridine]-5-carboxamide]

Row | IC50 (ABL1 (64-515) [1]) | IC50 (ABL1 (64-515) [2]) | Structure (SMILES)
18 | 2.7 nM | < 3 nM | O=C(Nc1ccc(OC(F)(F)F)cc1)c1ccc(N2CC[C@@H](O)C2)c(-c2cccnc2)c1 [Example 5, (R)-4-(3-Hydroxypyrrolidin-1-yl)-3-(pyridin-3-yl)-N-(4-(trifluoromethoxy)phenyl)benzamide]
19 | 0.8 nM | < 3 nM | Cc1ccc(-c2cc(C(=O)Nc3ccc(OC(F)(F)F)cc3)cnc2N2CC[C@H](O)C2)cn1 [Example 34, (S)-2-(3-Hydroxypyrrolidin-1-yl)-6′-methyl-N-(4-(trifluoromethoxy)phenyl)-[3,3′-bipyridine]-5-carboxamide]
20 | 0.7 nM | 2 nM | Cc1ncc(-c2cc(C(=O)Nc3ccc(OC(F)(F)Cl)cc3)cnc2N2C[C@H](O)[C@@H](O)C2)cn1 [Example 262]
21 | 8.1 nM | 8 nM | O=C(Nc1ccc(S(=O)(=O)C(F)(F)F)cc1)c1cnc(N2CC[C@@H](O)C2)c(-c2cncnc2)c1 [Example 214, (R)-6-(3-Hydroxypyrrolidin-1-yl)-5-(pyrimidin-5-yl)-N-(4-((trifluoromethyl)sulfonyl)phenyl)nicotinamide]
22 | 4.3 nM | < 3 nM | O=C(Nc1ccc(OC(F)(F)F)c(Cl)c1)c1cnc(N2CC[C@@H](O)C2)c(-c2cncnc2)c1 [Example 204, (R)—N-(3-Chloro-4-(trifluoromethoxy)phenyl)-6-(3-hydroxypyrrolidin-1-yl)-5-(pyrimidin-5-yl)nicotinamide]
23 | 8.5 nM | 2 nM | CN(C)[C@H]1CN(c2ncc(C(=O)Nc3ccc(OC(F)(F)F)cc3)cc2-c2cncnc2)C[C@@H]1O [Example 225, 6-((3S,4S)-3-(Dimethylamino)-4-hydroxypyrrolidin-1-yl)-5-(pyrimidin-5-yl)-N-(4-(trifluoromethoxy)phenyl)nicotinamide]
24 | 6.8 nM | 3 nM | CC(F)(F)Oc1ccc(NC(=O)c2cnc(N3CC[C@@H](O)C3)c(-c3cncc(C#N)c3)c2)cc1 [Example 276]
25 | 0.5 nM | < 3 nM | O=C(Nc1ccc(C(F)(F)C(F)(F)F)cc1)c1cnc(N2CC[C@@H](O)C2)c(-c2cncc(F)c2)c1 [Example 209, (R)-5′-Fluoro-2-(3-hydroxypyrrolidin-1-yl)-N-(4-(perfluoroethyl)phenyl)-[3,3′-bipyridine]-5-carboxamide]
26 | 0.8 nM | 2 nM | CN(CCO)c1ncc(C(=O)Nc2ccc(OC(F)(F)Cl)cc2)cc1-c1cncnc1 [Example 179, N-(4-(Chlorodifluoromethoxy)phenyl)-6-((2-hydroxyethyl)(methyl)amino)-5-(pyrimidin-5-yl)nicotinamide]
27 | 1.2 nM | 4 nM | N#Cc1cncc(-c2cc(C(=O)Nc3ccc(OC(F)(F)F)c(F)c3)cnc2N2CC[C@@H](O)C2)c1 [Example 200, (R)-5′-Cyano-N-(3-fluoro-4-(trifluoromethoxy)phenyl)-2-(3-hydroxypyrrolidin-1-yl)-[3,3′-bipyridine]-5-carboxamide]
28 | 0.9 nM | 8 nM | N#Cc1cncc(-c2cc(C(=O)Nc3ccc(SC(F)(F)F)cc3)cnc2N2CC[C@H](CO)C2)c1 [Example 191, (S)-5′-Cyano-2-(3-(hydroxymethyl)pyrrolidin-1-yl)-N-(4-((trifluoromethyl)thio)phenyl)-[3,3′-bipyridine]-5-carboxamide]
29 | 2.2 nM | 3 nM | O=C(Nc1ccc(OC(F)(F)F)cc1)c1ccc(N2C[C@@H](O)[C@@H](O)C2)c(-c2cncnc2)c1 [Example 10, 4-(cis-3,4-Dihydroxypyrrolidin-1-yl)-3-(pyrimidin-5-yl)-N-(4-(trifluoromethoxy)phenyl)benzamide]
30 | 0.5 nM | 2 nM | N[C@@H]1[C@H]2CN(c3ncc(C(=O)Nc4ccc(OC(F)(F)Cl)cc4)cc3-c3cncnc3)C[C@@H]12 [Example 253]
31 | < 0.13 nM | 1.9 nM | O=C(Nc1ccc(OC(F)(F)Cl)cc1)c1cnc(N2CCC(F)(F)C2)c(-c2cncnc2)c1 [Example 247, N-(4-(Chlorodifluoromethoxy)phenyl)-6-(3,3-difluoropyrrolidin-1-yl)-5-(pyrimidin-5-yl)nicotinamide]
32 | 0.2 nM | 4 nM | N#Cc1cncc(-c2cc(C(=O)Nc3ccc(SC(F)(F)F)cc3)cnc2N2CC[C@@H](O)C2)c1 [Example 188, (R)-5′-Cyano-2-(3-hydroxypyrrolidin-1-yl)-N-(4-((trifluoromethyl)thio)phenyl)-[3,3′-bipyridine]-5-carboxamide]
33 | 0.3 nM | < 3 nM | O=C(Nc1ccc(OC(F)(F)Cl)cc1)c1cnc(N2CC[C@@H](O)C2)c(-c2cccnc2F)c1 [Example 172, (R)—N-(4-(Chlorodifluoromethoxy)phenyl)-2′-fluoro-2-(3-hydroxypyrrolidin-1-yl)-[3,3′-bipyridine]-5-carboxamide]
34 | 2.8 nM | 37 nM | CCN(CCO)c1ncc(C(=O)Nc2ccc(OC(F)(F)F)cc2)cc1-c1cncc(C#N)c1 [Example 158, 5′-Cyano-2-(ethyl(2-hydroxyethyl)amino)-N-(4-(trifluoromethoxy)phenyl)-[3,3′-bipyridine]-5-carboxamide]
